In general, inhibition refers to how much of the control response was suppressed. Read a high inhibition as a strong effect. For orientation: IC50 means the concentration that inhibits the measured activity by half. Read a low IC50 as inhibition by little substance. By EC50 is commonly meant the concentration at which the effect is half-maximal.

Residues, ends and D or L forms follow the SMILES beside them. A value given as a limit tells only on which side of the number the result lay.

The source of these data is ChEMBL document CHEMBL2346651, “Structure-activity relationship study of tachykinin peptides for the development of novel neurokinin-3 receptor selective agonists” (Bioorg Med Chem, 2013).

Test [1] has as its target Substance-P receptor (Homo sapiens) (UniProt P25103). Put plainly: Displacement of [125I]-BH-SP from NK1R (unknown origin) transfected in CHO cells at 10 uM by gamma counting analysis. The format is cell-based.
Test [2] addresses T1, Neuromedin-K receptor (Homo sapiens, UniProt P29371).
T1 sequence (P29371 whole entry): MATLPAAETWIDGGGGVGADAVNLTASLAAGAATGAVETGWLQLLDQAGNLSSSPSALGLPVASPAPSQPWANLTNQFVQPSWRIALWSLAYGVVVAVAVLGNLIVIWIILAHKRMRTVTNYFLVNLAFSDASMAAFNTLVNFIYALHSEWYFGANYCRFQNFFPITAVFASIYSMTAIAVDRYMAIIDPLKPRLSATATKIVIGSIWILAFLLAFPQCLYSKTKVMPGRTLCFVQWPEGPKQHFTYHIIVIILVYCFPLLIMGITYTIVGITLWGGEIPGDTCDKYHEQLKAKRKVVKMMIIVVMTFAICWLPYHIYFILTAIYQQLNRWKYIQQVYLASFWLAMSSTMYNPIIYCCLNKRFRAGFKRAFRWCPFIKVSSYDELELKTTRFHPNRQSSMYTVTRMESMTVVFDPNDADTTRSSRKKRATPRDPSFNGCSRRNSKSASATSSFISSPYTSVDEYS
In words: Displacement of ([125I]-His3, MePhe7)-NKB from NK3R (unknown origin) transfected in CHO cells by gamma counting analysis. It counts as cell-based.

The target of test [3] is T1, Neuromedin-K receptor. In words: Agonist activity at NK3R (unknown origin) transfected in CHO cells assessed as calcium influx […]. It counts as functional, cell-based.
The target of test [4] is T2, Substance-K receptor (Homo sapiens) (UniProt P21452).
T2 sequence (whole entry): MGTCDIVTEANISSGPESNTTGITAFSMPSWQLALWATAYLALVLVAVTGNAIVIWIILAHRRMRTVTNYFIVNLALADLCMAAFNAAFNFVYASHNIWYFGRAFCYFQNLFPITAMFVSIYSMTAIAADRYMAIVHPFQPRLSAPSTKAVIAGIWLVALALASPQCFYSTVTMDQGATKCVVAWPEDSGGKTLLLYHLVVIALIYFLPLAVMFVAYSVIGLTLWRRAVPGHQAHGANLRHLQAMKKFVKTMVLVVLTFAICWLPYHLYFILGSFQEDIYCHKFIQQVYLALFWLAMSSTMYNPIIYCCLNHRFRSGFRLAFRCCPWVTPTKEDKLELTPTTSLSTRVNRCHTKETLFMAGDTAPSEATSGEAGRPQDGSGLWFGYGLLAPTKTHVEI
In words: Displacement of [125I]-NKA from NK2R (unknown origin) transfected in CHO cells at 10 uM by gamma counting analysis. It counts as cell-based.

Chain of Substance-P receptor (Homo sapiens) (P25103 whole entry): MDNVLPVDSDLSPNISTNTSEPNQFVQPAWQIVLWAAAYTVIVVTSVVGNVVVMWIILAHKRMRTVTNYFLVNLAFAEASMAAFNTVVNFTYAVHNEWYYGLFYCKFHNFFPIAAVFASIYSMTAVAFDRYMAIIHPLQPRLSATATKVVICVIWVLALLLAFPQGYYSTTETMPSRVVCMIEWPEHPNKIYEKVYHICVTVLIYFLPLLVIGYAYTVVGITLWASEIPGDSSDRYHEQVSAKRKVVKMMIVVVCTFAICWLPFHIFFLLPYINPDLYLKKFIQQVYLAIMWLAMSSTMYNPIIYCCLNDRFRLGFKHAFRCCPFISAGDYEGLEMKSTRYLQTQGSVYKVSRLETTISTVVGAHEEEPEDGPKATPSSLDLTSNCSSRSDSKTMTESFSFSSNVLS

In the case of `CSCC[C@H](NC(=O)[C@H](CC(C)C)NC(=O)CNC(=O)[C@H](Cc1ccccc1)N(C)C(=O)[C@H](Cc1ccccc1)NC(=O)[C@H](CCC(N)=O)NC(=O)[C@H](CC(=O)O)NC(=O)[C@H](CO)NC(=O)[C@H](CCCCN)NC(=O)[C@@H]1CCCN1C(=O)[C@@H](NC(=O)[C@@H](N)CC(=O)O)C(C)C)C(N)=O` (HELM PEPTIDE1{D.V.P.K.S.D.Q.F.[meF].G.L.M.[am]}$$$$V2.0), the inhibition came out at 46% in test [1] and 11% in test [4]. The IC50 on Neuromedin-K receptor [2] came to 13 nM. Moreover, the EC50 at Neuromedin-K receptor [3] was 0.038 nM.

In the case of `CSCC[C@H](NC(=O)[C@H](CC(C)C)NC(=O)CNC(=O)[C@H](Cc1ccccc1)N(C)C(=O)[C@H](Cc1ccccc1)NC(=O)[C@H](CO)NC(=O)[C@H](CC(=O)O)NC(=O)[C@H](Cc1cnc[nH]1)NC(=O)[C@H](CCSC)NC(=O)[C@@H](N)CC(=O)O)C(N)=O` (HELM PEPTIDE1{D.M.H.D.S.F.[meF].G.L.M.[am]}$$$$V2.0), the inhibition in test [1] is below 10%; in test [4], 31%. The same molecule registered an IC50 on Neuromedin-K receptor [2] of 3.6 nM. In addition, the EC50 on Neuromedin-K receptor [3] was found to be 0.04 nM.

Turning to `CSCC[C@H](NC(=O)[C@H](CC(C)C)NC(=O)CNC(=O)[C@H](Cc1ccccc1)N(C)C(=O)[C@H](Cc1ccccc1)NC(=O)[C@H](CCSC)NC(=O)[C@H](CC(=O)O)NC(=O)[C@H](Cc1cnc[nH]1)NC(=O)[C@H](CCSC)NC(=O)[C@@H](N)CC(=O)O)C(N)=O` (HELM PEPTIDE1{D.M.H.D.M.F.[meF].G.L.M.[am]}$$$$V2.0), the inhibition was below 10% in test [1] and 41% in test [4]. This molecule also returned an IC50 on Neuromedin-K receptor [2] of 1.7 nM. Moreover, the EC50 on Neuromedin-K receptor [3] is 0.032 nM.

As for `CSCC[C@H](NC(=O)[C@H](CC(C)C)NC(=O)CNC(=O)[C@H](Cc1ccccc1)N(C)C(=O)[C@H](Cc1ccccc1)NC(=O)[C@H](CC(C)C)NC(=O)[C@H](CC(=O)O)NC(=O)[C@H](Cc1cnc[nH]1)NC(=O)[C@H](CCSC)NC(=O)[C@@H](N)CC(=O)O)C(N)=O` (HELM PEPTIDE1{D.M.H.D.L.F.[meF].G.L.M.[am]}$$$$V2.0), the inhibition in test [1] was below 10%; in test [4] it was 29%. Also, the IC50 at Neuromedin-K receptor [2] worked out at 6.9 nM. Also, on Neuromedin-K receptor [3], the EC50 was 0.051 nM.

With `CSCC[C@H](NC(=O)[C@H](CC(C)C)NC(=O)CNC(=O)[C@H](Cc1ccccc1)N(C)C(=O)[C@H](Cc1ccccc1)NC(=O)[C@H](CC(=O)O)NC(=O)[C@H](CC(=O)O)NC(=O)[C@@H]1CCCN1C(=O)[C@H](CC(N)=O)NC(=O)[C@@H]1CCCN1C(=O)[C@@H]1CCC(=O)N1)C(N)=O` (HELM PEPTIDE1{[Glp].P.N.P.D.D.F.[meF].G.L.M.[am]}$$$$V2.0), the inhibition in test [1] and in test [4] was below 10% each time. Besides, the IC50 on Neuromedin-K receptor [2] amounted to 19 nM. The EC50 on Neuromedin-K receptor [3] turned out to be 0.083 nM.

As for `CC[C@H](C)[C@H](NC(=O)[C@H](CC(=O)O)NC(=O)[C@H](Cc1cnc[nH]1)NC(=O)[C@H](CCSC)NC(=O)[C@@H](N)CC(=O)O)C(=O)N[C@@H](Cc1ccccc1)C(=O)N(C)[C@@H](Cc1ccccc1)C(=O)NCC(=O)N[C@@H](CC(C)C)C(=O)N[C@@H](CCSC)C(N)=O` (HELM PEPTIDE1{D.M.H.D.I.F.[meF].G.L.M.[am]}$$$$V2.0), the inhibition is below 10% in test [1] and 35% in test [4]. The molecule further came in with an IC50 at Neuromedin-K receptor [2] of 4 nM. Also, the EC50 on Neuromedin-K receptor [3] came to 0.06 nM.

Turning to `CSCC[C@H](NC(=O)[C@H](CC(C)C)NC(=O)CNC(=O)[C@H](Cc1ccccc1)N(C)C(=O)[C@H](Cc1ccccc1)NC(=O)[C@H](C)NC(=O)[C@H](CC(=O)O)NC(=O)[C@H](Cc1cnc[nH]1)NC(=O)[C@H](CCSC)NC(=O)[C@@H](N)CC(=O)O)C(N)=O` (HELM PEPTIDE1{D.M.H.D.A.F.[meF].G.L.M.[am]}$$$$V2.0), the values for the inhibition in test [1] and in test [4] were below 10% and 33%, respectively. The IC50 on Neuromedin-K receptor [2] worked out at 4.4 nM. For the same molecule, the EC50 on Neuromedin-K receptor [3] was 0.012 nM.
